From ChEMBL document CHEMBL5727966, “Compositions and methods for treating disorders of circadian and diurnal rhythms using prokineticin 2 agonists and antagonists” (2020)

Assay: Aequorin-Based Luminescent Assay : An aequorin-based luminescent assay for calcium mobilization was used to measure mobilization of intracellular Ca2+ (Bullock et al., Mol Pharmacol 65, 582-588, 2004). Chinese hamster ovary (CHO) cells stably expressing photoprotein aequorin and recombinant PKR1 or PKR2 were tested by this method. Briefly, the cells were charged in Opti-MEM™ (Invitrogen) containing 8 μM of coelenterazine cp at 37° C. for 2 hours. Cells were detached by brief trypsinization and maintained in Hank's Balanced Salt Solution (HBSS) plus 10 mM HEPES (pH7.5) and 0.1% BSA at about 5×10^5 cells/ml. Luminescence measurements were made using a Berthold luminometer.All compounds were diluted in HBSS plus 10 mM HEPES (pH7.5) and 0.1% BSA. To test the agonist activity, 100 μl of cells were injected into the tubes with 20 μl of compounds. For antagonist assays, 80 μl cells were incubated in the tubes with 20 μl different concentrations of antagonists at room temperature for 20 minutes, and then 100 μl of recombinant PK2 were injected. The IC50 obtained from the assays were then converted to Ki values using the formula: IC50/(1+[PK2]/EC50PK2).
Format: cell-based

Compound: CC(C)CN(Cc1cc(Cl)c2c(c1)OCCCO2)C(=O)C1CN(Cc2cccc3nc[nH]c23)CCO1 (stereo unspecified)
- Ki: 8.4 nM
